Data set [1] relates to α-SMA. The data set is described as follows: Immunocytochemical analysis of α-SMA expression, rabbit corneal stromal cells. The format is cell-based. Conditions: 10 mM EP. Here is the method:
FIG. 4. Immunocytochemical analysis of α-SMA expression. Rabbit corneal stromal cells in P2 growing in DMEM/F12 with 10% FBS were subcultured into 35 mm tissue culture dishes. After 24 hrs of incubation, the media were replaced with DMEM/F12 medium containing 1% FBS and TGF-β1 with or without (control) 10 mM EP and incubated for four days (media were changed every 24 hours). The cells were fixed and stained for α-SMA (green) using an indirect fluorescence technique as described herein.
(§1) For immunocytochemical analyses, the cells were cultured on glass cover slips or tissue culture dishes. Cells were rinsed with phosphate-buffered saline (PBS), fixed with paraformaldehyde-lysine-periodate and permeabilized with PIPES buffer containing 0.2% Triton X-100, as described previously (Guerriero et al., Invest. Opthalmol. Vis. Sci. 2007; 48: 627-635). Fixed and permeabilized cells were reacted with 10% heat-inactivated goat serum in PBS, pH 7.5, for 45 minutes to block the nonspecific binding of the secondary antibody, rinsed with PBS, and then treated with the primary and secondary antibodies as described previously (Guerriero et al. Invest. Opthalmol. Vis. Sci. 2007; 48: 627-635). Primary antibodies included monoclonal rat anti-α smooth muscle actin (SMA) and anti-fibronectin. […]

For another data set, the system named is fibronectin. Description: Immunocytochemical analysis of fibronectin expression, rabbit corneal stromal cells. The note with it: rabbit corneal cells treated with TGF-β1. The format is cell-based. On the procedure:
FIGS. 6A-6B. Immunocytochemical analysis of fibronectin expression. Normal human stromal cells (FIG. 6A) or rabbit corneal stromal cells (FIG. 6B) in P2 growing in DMEM/F12 with 10% FBS were subcultured into 35 mm tissue culture dishes. After 24 hrs of incubation, the media were replaced with DMEM/F12 medium containing 1% FBS and TGF-β1 with or without (control) 10 mM EP and incubated for four days (media were changed every 24 hours). The cells were fixed and double stained for fibronectin (green) and phalloidin (red) using an indirect fluorescence technique as described herein.
as §1

Data set [2] has as its system α-SMA. The data set is described as follows: Immunocytochemical analysis of α-SMA expression, human corneal stromal cells. The format is cell-based. Conditions: 10 mM EP. Here is the method: FIG. 3. Immunocytochemical analysis of α-SMA expression. Human corneal stromal cells in P2 growing in DMEM/F12 with 10% FBS were subcultured into desired number of 35 mm tissue culture dishes. After 24 hrs of incubation, the media were replaced with DMEM/F12 medium containing 1% FBS and TGF-β1 with or without (control) 10 mM EP and incubated for two and four days (media were changed every 24 hours). The cells were fixed and double stained for α-SMA (green) and phalloidin (red) using an indirect fluorescence technique as described herein.
as §1

For data set [3] the following is noted: cited from earlier work.
Data set [4] has as its system α-SMA. The data set is described as follows: Western blot analyses of α-SMA, human corneal stromal cells. The format is cell-based. On the procedure:
FIG. 5. Western blot analyses of α-SMA. Human corneal stromal cells in P2 growing in DMEM/F12 with 10% FBS were subcultured into 60 mm tissue culture dishes. After 24 hrs of incubation, the media were replaced with DMEM/F12 medium containing 1% FBS and TGF-β1 with or without (control) different concentrations of EP as indicated and incubated for two and four days (media were changed every 24 hours). The cells were extracted in RIPA buffer and the extracts containing 5 μg of total proteins were loaded per lane for Western blot analysis.
Keratocytes or fibroblasts grown under different culture conditions were extracted in RIPA buffer (9.1 mM dibasic sodium phosphate, 1.7 mM monobasic sodium phosphate, 150 mM NaCl, pH, 7.4, 1% Nonidet P-40, 0.5% sodium deoxycholate, 0.1% SDS, 0.03 TIU/mL aprotinin, 1 mM sodium orthovanadate, and 100 μg/mL phenylmethylsulfonyl fluoride (PMSF)). Aliquots of cell extracts containing 50 or 100 μg protein were subjected to SDS-PAGE. […] Immunoreactive bands were detected using chemiluminescence Western chemiluminescence reagents. […]
For orientation: Immunoblotting shows a protein as a band on a membrane.

Data set [5] deals with normal human corneal fibroblasts. Description: Cell proliferation analysis, human corneal stromal cells. The format is cell-based. On the procedure:
FIGS. 1A-1C. Effect of ethyl pyruvate on the growth of human corneal stromal cells. Corneal stromal cells in P2 growing in DMEM/F12 with 10% FBS were subcultured into desired number of 35 mm tissue culture dishes. After 24 hrs of incubation, the media were replaced with DMEM/F12 medium containing 1% FBS with or without EP (FIG. 1A) or with the same medium containing TGF-β1 or b-FGF/HS with or without EP (FIG. 1B and FIG. 1C, respectively). The cells in several marked regions were counted every 24 hours as described in Methods. The data points are average (±SE) from two separate experiments.
To study the effect of EP on cell proliferation, normal human corneal fibroblasts growing in DMEM/F12 with 10% FBS were subcultured into the desired number of 35 mm tissue culture dishes at a density of 5×10^4 cells/per dish. […] Several regions were marked on the bottom of the dishes and cells in marked regions were counted at 24 hr intervals for five days. Phase contrast digital micrographs of the cells in the marked fields were captured and the cells in the images were counted using MetaMorph® imaging software. The rate of proliferation was evaluated by determining the number of cells at specific time points after treatment/number of cells at the start of the treatment. […]

On to `CCOC(=O)C(C)=O` [ethyl pyruvate], for which the “TGF-β1 induced expression of α-SMA (immunocytochemical)” value with α-SMA [1] and with α-SMA [2] was “downregulated” each time. For the same molecule, the “fibronectin deposition in the matrix (immunocytochemical)” value with fibronectin was “concentration dependent downregulation”. For the same molecule, the “time to diffuse into the aqueous humor” value in data set [3] (applied on the surface of the eye) is ≤ 15 min. The “entry into the anterior chamber” value in data set [3] (diffuses through conjunctival tissue or into corneal stroma) is “within minutes”. Besides, the elimination half-life entry in data set [3] (in vivo) is reported as “approximately 90 minutes”. In the data set on α-SMA [4] (TGF-β1), the “EP concentration with highest downregulation of α-SMA” value came out at 20 mM. Further, the “TGF-β1 induced expression of α-SMA (Western blot)” value in the data set with α-SMA [4] (two and four days, concentration dependent) is listed as “down-regulated”. For the same molecule, the cell number entry in data set [5] (1% FBS with or without TGF-β1 or b-FGF/HS, 10 mM and 15 mM EP, counted every 24 hours) is “no significant increases in cell number”. Moreover, the “proliferation of human corneal fibroblasts and myofibroblasts” value in data set [5] (10-20 mM in the medium) was “inhibited proliferation”.

(Values after patent US8815946B2, “Inhibition of proliferation and fibrotic response of activated corneal stromal cells” (University of Pittsburgh—of the Commonwealth System of …, priority 2008, dated 2014).)
